Laboratory results reported in BindingDB's records for patent US20190276450 (Abbvie, 2019).

Tests used:
[1] = target: Non-receptor tyrosine-protein kinase TYK2 (Homo sapiens, UniProt P29597); assay: TYK2 (TYK2/JAK2 PSTAT4 T-BLAST) Alpha Screen Assay
Protocol: IL-12 is known to transduce its signal through IL-12 receptor via Jak2 and/or Tyk2. For that reason, the activity against Tyk2/Jak2 was measured by determining the inhibition of IL-12 induced phosphorylation of STAT4 in T-blast cells. […] See, e.g., Sohn et al., J. Immunology (2013) 2205-2216.

[2] = target: Tyrosine-protein kinase JAK1 (Homo sapiens, UniProt P23458); assay: JAK1 (PSTAT3 TF1) Alpha Screen Assay
Tyrosine-protein kinase JAK1, sequence (P23458 whole entry): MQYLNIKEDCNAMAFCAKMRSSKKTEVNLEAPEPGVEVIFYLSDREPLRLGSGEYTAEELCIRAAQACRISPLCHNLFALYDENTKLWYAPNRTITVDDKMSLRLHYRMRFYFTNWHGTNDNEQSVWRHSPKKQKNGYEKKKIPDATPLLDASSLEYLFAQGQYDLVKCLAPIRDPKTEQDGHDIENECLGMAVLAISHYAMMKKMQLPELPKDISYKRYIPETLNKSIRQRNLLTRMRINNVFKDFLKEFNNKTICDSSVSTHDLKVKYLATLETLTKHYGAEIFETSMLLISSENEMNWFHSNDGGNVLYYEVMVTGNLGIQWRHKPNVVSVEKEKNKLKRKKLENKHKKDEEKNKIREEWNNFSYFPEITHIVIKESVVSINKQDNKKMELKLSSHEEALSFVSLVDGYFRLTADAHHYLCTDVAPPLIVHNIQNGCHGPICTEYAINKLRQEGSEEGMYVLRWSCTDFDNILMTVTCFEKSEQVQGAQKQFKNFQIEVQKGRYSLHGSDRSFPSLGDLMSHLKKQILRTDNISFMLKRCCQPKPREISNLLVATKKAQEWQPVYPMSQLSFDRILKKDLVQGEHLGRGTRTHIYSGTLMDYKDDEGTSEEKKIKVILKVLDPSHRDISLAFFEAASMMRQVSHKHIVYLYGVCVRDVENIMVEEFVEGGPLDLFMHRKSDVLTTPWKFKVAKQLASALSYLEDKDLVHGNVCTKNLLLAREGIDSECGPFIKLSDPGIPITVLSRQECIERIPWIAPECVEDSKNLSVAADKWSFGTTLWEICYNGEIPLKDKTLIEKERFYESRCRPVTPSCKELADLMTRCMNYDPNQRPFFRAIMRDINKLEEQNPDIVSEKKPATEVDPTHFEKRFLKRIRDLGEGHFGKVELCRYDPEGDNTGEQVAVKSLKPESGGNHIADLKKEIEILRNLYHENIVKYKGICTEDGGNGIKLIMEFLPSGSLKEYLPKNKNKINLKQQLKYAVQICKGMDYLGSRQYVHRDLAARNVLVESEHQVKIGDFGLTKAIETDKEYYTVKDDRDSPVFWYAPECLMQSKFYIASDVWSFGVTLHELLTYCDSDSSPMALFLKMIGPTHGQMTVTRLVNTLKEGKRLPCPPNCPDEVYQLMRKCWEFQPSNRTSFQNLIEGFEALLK
Protocol: IL-6 is known to transduce its signal through IL-6 receptor via Jak1. Activity against Jak was therefore measured by determining inhibition of IL-6 induced phosphorylation of STAT3 in TF1 cells. From these tests, the EC50 (effective concentration for 50% maximal response) values were determined in 1 μM for the test compounds.

Non-receptor tyrosine-protein kinase TYK2, sequence (P29597 whole entry): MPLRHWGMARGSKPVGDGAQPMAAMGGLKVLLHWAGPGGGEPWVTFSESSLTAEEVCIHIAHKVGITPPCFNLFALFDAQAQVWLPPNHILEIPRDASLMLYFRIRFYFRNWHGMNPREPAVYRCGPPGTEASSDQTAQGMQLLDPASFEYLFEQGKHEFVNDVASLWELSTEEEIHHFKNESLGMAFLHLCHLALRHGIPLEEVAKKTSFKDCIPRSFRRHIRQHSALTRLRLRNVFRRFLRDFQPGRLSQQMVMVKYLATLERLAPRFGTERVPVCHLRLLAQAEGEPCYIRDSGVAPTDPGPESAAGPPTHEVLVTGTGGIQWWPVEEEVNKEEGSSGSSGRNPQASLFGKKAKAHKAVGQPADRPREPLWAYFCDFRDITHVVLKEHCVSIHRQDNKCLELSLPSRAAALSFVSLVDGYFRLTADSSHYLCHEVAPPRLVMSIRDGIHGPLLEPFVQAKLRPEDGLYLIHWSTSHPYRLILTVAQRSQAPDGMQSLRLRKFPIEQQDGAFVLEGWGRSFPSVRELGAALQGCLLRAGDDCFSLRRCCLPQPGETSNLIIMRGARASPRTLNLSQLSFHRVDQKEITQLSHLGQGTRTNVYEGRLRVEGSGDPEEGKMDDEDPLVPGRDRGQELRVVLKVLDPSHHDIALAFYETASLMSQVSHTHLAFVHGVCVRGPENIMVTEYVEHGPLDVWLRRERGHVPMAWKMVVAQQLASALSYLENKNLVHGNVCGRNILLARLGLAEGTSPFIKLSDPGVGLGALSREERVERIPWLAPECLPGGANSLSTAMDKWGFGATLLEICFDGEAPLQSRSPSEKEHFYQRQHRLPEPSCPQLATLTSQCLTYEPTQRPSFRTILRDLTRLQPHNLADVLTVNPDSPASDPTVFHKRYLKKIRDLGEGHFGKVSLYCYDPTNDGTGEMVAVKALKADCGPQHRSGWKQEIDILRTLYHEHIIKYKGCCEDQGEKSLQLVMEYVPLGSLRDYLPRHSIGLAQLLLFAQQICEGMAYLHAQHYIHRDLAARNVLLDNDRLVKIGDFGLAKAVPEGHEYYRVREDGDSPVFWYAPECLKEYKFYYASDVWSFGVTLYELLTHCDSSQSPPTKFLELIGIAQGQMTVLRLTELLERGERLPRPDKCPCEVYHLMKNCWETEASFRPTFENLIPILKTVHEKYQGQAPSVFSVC

| EC50 [1] [nM] | EC50 [2] [nM] | Compound |
| --- | --- | --- |
| 445 | 4460 | CO[C@]1(c2cc(C)cc(-c3cn(C)c4cnc(NC(N)=O)cc34)n2)CCOC1 [US20190276450, Example 1b.3] |
| 699 |  | COCc1cc(-c2cn(C)c3cnc(NC(C)=O)cc23)nc([C@@]2(OC)CCOC2)c1 [US20190276450, Example 2.4] |
| 694 |  | CO[C@]1(c2cc(C#N)cc(-c3cn(C)c4cnc(NC(C)=O)cc34)n2)CCOC1 [US20190276450, Example 2.5] |
| 268 |  | CO[C@@]1(c2cc(C#N)cc(-c3cn(C)c4cnc(NC(C)=O)cc34)n2)CCOC1 [US20190276450, Example 2.6] |
| 254 |  | CO[C@]1(c2cc(C(F)F)cc(-c3cn(C)c4cnc(NC(C)=O)cc34)n2)CCOC1 [US20190276450, Example 2.7] |
| 716 |  | CO[C@]1(c2cncc(-c3cn(C)c4cnc(NC(C)=O)cc34)n2)CCOC1 [US20190276450, Example 2.9] |
| 368 |  | CO[C@@]1(c2cncc(-c3cn(C)c4cnc(NC(C)=O)cc34)n2)CCOC1 [US20190276450, Example 2.10] |
| 353 |  | COc1cc(-c2cn(C3COC3)c3cnc(NC(C)=O)cc23)nc([C@@]2(OC)CCOC2)c1 [US20190276450, Example 4.4] |
| 561 |  | COc1cc(-c2cn([C@@H]3CCOC3)c3cnc(NC(C)=O)cc23)nc([C@@]2(OC)CCOC2)c1 [US20190276450, Example 5.3] |
| 111 | > 100000 | COc1cc(-c2cn(C3COC3)c3cnc(NC(C)=O)cc23)nc([C@]2(OC)CCOC2)c1 [US20190276450, Example 5] |
| 103 | 5200 | CO[C@]1(c2cc(OCC3COC3)cc(-c3cn(C)c4cnc(NC(C)=O)cc34)n2)CCOC1 [US20190276450, Example 6.2] |
| 352 |  | CO[C@@]1(c2cc(OCC#N)cc(-c3cn(C)c4cnc(NC(C)=O)cc34)n2)CCOC1 [US20190276450, Example 6.3] |
| 90 | 22000 | CO[C@@]1(c2cc(OC3COC3)cc(-c3cn(C)c4cnc(NC(C)=O)cc34)n2)CCOC1 [US20190276450, Example 8] |
| 124 |  | CO[C@@]1(c2cc(O[C@H]3C[C@@H](O)C3)cc(-c3cn(C)c4cnc(NC(C)=O)cc34)n2)CCOC1 [US20190276450, Example 11.2] |
| 496 |  | CO[C@]1(c2cc(O[C@H]3C[C@H](O)C3)cc(-c3cn(C)c4cnc(NC(C)=O)cc34)n2)CCOC1 [US20190276450, Example 11a] |
| 185 | 15000 | COc1cc(-c2cn(C)c3cnc(NC(N)=O)cc23)nc([C@@]2(OC)CCOC2)c1 [US20190276450, Example 12.7] |
| 310 |  | CO[C@@]1(c2cccc(-c3cn(C)c4cnc(NC(C)=O)cc34)n2)CCOC1 [US20190276450, Example 16] |
| 1590 |  | CO[C@]1(c2cccc(-c3cn(C)c4cnc(NC(C)=O)cc34)n2)CCOC1 [US20190276450, Example 16a] |
| 137 | 45000 | COc1cc(-c2cn(C)c3cnc(NC(C)=O)cc23)nc([C@]2(OC)CCOC2)c1 [US20190276450, Example 20] |
| 906 |  | COc1cc(-c2cn(C)c3cnc(NC(C)=O)cc23)nc([C@@]2(OC)CCOC2)c1 [US20190276450, Example 20a] |
| 3100 |  | COc1cc(-c2cn(C)c3cnc(NC(C)=O)cc23)nc([C@@]2(CO)CCOC2)c1 [US20190276450, Example 22.7] |

Further lines, the molecule ahead of its results:

| Compound | EC50 [1] [nM] | EC50 [2] [nM] |
| --- | --- | --- |
| CO[C@@]1(c2cccc(-c3cn([C@H]4CC4(F)F)c4cnc(NC(N)=O)cc34)n2)CCOC1 [US20190276450, Example 1.3] | 2030 |  |
| CNC(=O)Nc1cc2c(-c3cccc([C@]4(OC)CCOC4)n3)cn(C)c2cn1 [US20190276450, Example 1a.2] | 288 |  |
| CO[C@]1(c2cccc(-c3cn(C)c4cnc(NC(N)=O)cc34)n2)CCOC1 [US20190276450, Example 1a] | 468 |  |
| COCc1cc(-c2c[nH]c3cnc(NC(C)=O)cc23)nc([C@]2(OC)CCOC2)c1 [US20190276450, Example 2-NH] | 310 |  |
| CC[C@@]1(c2cccc(-c3cn(C)c4cnc(NC(C)=O)cc34)n2)CCOC1 [US20190276450, Example 2.3] | 96 | 18000 |
| CC[C@]1(c2cccc(-c3cn(C)c4cnc(NC(C)=O)cc34)n2)CCOC1 [US20190276450, Example 2.3a] | 2220 |  |
| CO[C@]1(c2cc(C#N)cc(-c3cn([C@@H]4CC4(F)F)c4cnc(NC(C)=O)cc34)n2)CCOC1 [US20190276450, Example 2a.2] | 749 |  |
| CO[C@]1(c2cc(C#N)cc(-c3cn([C@H]4CC4(F)F)c4cnc(NC(C)=O)cc34)n2)CCOC1 [US20190276450, Example 2a.4] | 2360 |  |
| CO[C@@]1(c2cc(C#N)cc(-c3cn([C@H]4CC4(F)F)c4cnc(NC(C)=O)cc34)n2)CCOC1 [US20190276450, Example 2a.5] | 1590 |  |
| CC[C@]1(c2cccc(-c3cn(C)c4cnc(NC(N)=O)cc34)n2)CCOC1 [US20190276450, Example 3.3] | 388 |  |
| CO[C@]1(c2cc(C(F)F)cc(-c3cn(C4COC4)c4cnc(NC(C)=O)cc34)n2)CCOC1 [US20190276450, Example 4.2] | 616 |  |
| COc1cc(-c2cn([C@@H]3CCOC3)c3cnc(NC(C)=O)cc23)nc([C@]2(OC)CCOC2)c1 [US20190276450, Example 5.2] | 156 | > 100000 |
| CO[C@]1(c2cc(C#N)cc(-c3cn(C)c4cnc(NC(N)=O)cc34)n2)CCOC1 [US20190276450, Example 12.2] | 551 |  |
| COCc1cc(-c2cn(C)c3cnc(NC(N)=O)cc23)nc([C@@]2(OC)CCOC2)c1 [US20190276450, Example 12.4] | 319 |  |
| CO[C@@]1(c2cc(C(F)F)cc(-c3cn(C)c4cnc(NC(N)=O)cc34)n2)CCOC1 [US20190276450, Example 12.5] | 22 | 20000 |
| CO[C@@]1(c2cc(C#N)cc(-c3cn([C@H]4CC4(F)F)c4cnc(NC(N)=O)cc34)n2)CCOC1 [US20190276450, Example 12a.2] | 578 |  |
| CO[C@@]1(c2cc(C#N)cc(-c3cn([C@@H]4CC4(F)F)c4cnc(NC(N)=O)cc34)n2)CCOC1 [US20190276450, Example 12a.3] | 66 | > 100000 |
| CO[C@@]1(c2cc(C(F)F)cc(-c3cn([C@@H]4CCOC4)c4cnc(NC(N)=O)cc34)n2)CCOC1 [US20190276450, Example 12b.2] | 15 | 40000 |
| CO[C@@]1(c2cc(C(F)F)cc(-c3cn([C@H]4CCOC4)c4cnc(NC(N)=O)cc34)n2)CCOC1 [US20190276450, Example 12b.3] | 56 | 68000 |

| Compound | EC50 [1] [nM] | EC50 [2] [nM] |
| --- | --- | --- |
| CO[C@@]1(c2cc(C(F)F)cc(-c3cn(C4COC4)c4cnc(NC(N)=O)cc34)n2)CCOC1 [US20190276450, Example 12b.4] | 45 | 40000 |
| Cn1cc(-c2cccc(C3COC3)n2)c2cc(NC(N)=O)ncc21 [US20190276450, Example 13] | 492 |  |
| COc1cc(-c2cn(C)c3cnc(NC(C)=O)cc23)nc(C2(O)COC2)c1 [US20190276450, Example 14.2] | 673 |  |
| CC(=O)Nc1cc2c(-c3cc(OC(C)C)cc(C4(O)COC4)n3)cn(C)c2cn1 [US20190276450, Example 14.3] | 339 |  |
| Cn1cc(-c2cccc(C3(O)COC3)n2)c2cc(NC(N)=O)ncc21 [US20190276450, Example 14] | 563 | 11100 |
| NC(=O)Nc1cc2c(-c3cccc(C4(O)COC4)n3)cn([C@H]3CCOC3)c2cn1 [US20190276450, Example 15.2] | 1840 |  |
| NC(=O)Nc1cc2c(-c3cccc(C4(O)COC4)n3)cn([C@@H]3CCOC3)c2cn1 [US20190276450, Example 15] | 908 | 73000 |
| COC1(c2cccc(-c3c[nH]c4cnc(NC(C)=O)cc34)n2)CCOC1 (stereo unspecified) [US20190276450, Example 16-NH] | 3140 |  |
| CO[C@@]1(c2cccc(-c3c[nH]c4cnc(NC(C)=O)cc34)n2)CCOC1 [US20190276450, Example 17-NH] | 1520 |  |
| CO[C@@]1(c2cc(C(F)F)cc(-c3cn([C@H]4C[C@@H](C#N)C4)c4cnc(NC(C)=O)cc34)n2)CCOC1 [US20190276450, Example 17.3] | 8 |  |
| CO[C@@]1(c2cc(C)cc(-c3cn([C@H]4C[C@H](C#N)C4)c4cnc(NC(C)=O)cc34)n2)CCOC1 [US20190276450, Example 17.4] | 127 | 20000 |
| CO[C@@]1(c2cc(C)cc(-c3cn([C@H]4C[C@@H](C#N)C4)c4cnc(NC(C)=O)cc34)n2)CCOC1 [US20190276450, Example 17.5] | 5 | 32000 |
| CO[C@@]1(c2cccc(-c3cn([C@H]4C[C@@H](C#N)C4)c4cnc(NC(C)=O)cc34)n2)CCOC1 [US20190276450, Example 17a] | 477 |  |
| CO[C@@]1(c2cccc(-c3cn(C4(C)COC4)c4cnc(NC(C)=O)cc34)n2)CCOC1 [US20190276450, Example 18] | 494 |  |
| CO[C@@]1(c2cccc(-c3cn(C4(F)COC4)c4cnc(NC(C)=O)cc34)n2)CCOC1 [US20190276450, Example 18a] | 537 |  |
| CO[C@@]1(c2cccc(-c3cn(C4(C)COC4)c4cnc(NC(N)=O)cc34)n2)CCOC1 [US20190276450, Example 19] | 198 |  |
| CC(=O)Nc1cc2c(-c3cccc([C@@]4(CO)CCOC4)n3)cn(C)c2cn1 [US20190276450, Example 21a] | 1310 |  |
| COCCOc1cc(-c2cn(C)c3cnc(NC(C)=O)cc23)nc([C@@]2(CO)CCOC2)c1 [US20190276450, Example 22.9] | 1320 |  |
| COCc1cc(-c2nn(C)c3cnc(NC(C)=O)cc23)nc([C@]2(OC)CCOC2)c1 [US20190276450, Example 23] | 330 |  |
